Measurements published in patent US20220257774A1, “AROMATIC AMINE AR AHD BET TARGETING PROTEIN DEGRADATION CHIMERA COMPOUND AND USE” (HINOVA PHARMACEUTICALS INC., priority 2019, published 2022).
Where two headings read alike, the source gives them in different places.

How the values were obtained:
22RV1 cells = assay: Inhibition of the proliferation of drug-resistant prostate cancer cell 22RV1 (CCK-8); type: cell-based; settings: 22RV1 cells (enzalutamide-resistant), same method
Method in brief: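 22RV1 cells, 1000/well in RPMI1640 with 10% FBS, treated in duplicate with 9-point 3-fold dilutions from 10 μM (0.1% DMSO final). After 6 days at 37 °C, CCK-8 added for 1 h and OD450 read. IC50 from dose-response inhibition fit.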

LNCaP/AR cells = assay: Inhibition of the proliferation of LNCap/AR cells (CCK-8); type: cell-based; settings: read-out: LNCap/AR IC50
Method in brief: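 LNCaP/AR cells (1000/well, RPMI1640 + 10% FBS) were treated for 6 days at 37 °C with 9-point 3-fold dilutions from 10 μM final, 0.1% DMSO, in duplicate. Viability was read by CCK-8 absorbance at 450 nm after 1 h, and IC50 came from a dose-response-inhibition fit.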

[1] = 144 h, LNCaP/AR cells, 6 days culture, CCK-8
[2] = LNCaP/AR cells, 6 days culture, CCK-8

| Compound | IC50 (22RV1 cells; Homo sapiens) | IC50 (LNCaP/AR cells; [1]) | IC50 (22RV1 cells) | IC50 (LNCaP/AR cells; [2]) | IC50 (LNCaP/AR cells; LNCaP/AR, 144 h) |
| --- | --- | --- | --- | --- | --- |
| Cc1ccc(-c2c(C)noc2C)cc1N(CC1CN(C2CCN(c3ccc4c(c3)C(=O)N(C3CCC(=O)NC3=O)C4=O)CC2)C1)c1ccc(C2(C#N)CC2)cc1 (centres unmarked) [Compound 152] | 501 to 2000 nM |  |  |  | > 2000 nM |
| Cc1ccc(-c2c(C)noc2C)cc1N(CC1CN(C2CN(c3cc4c(cc3F)C(=O)N(C3CCC(=O)NC3=O)C4=O)C2)C1)c1ccc(C2(C#N)CC2)cc1 (centres unmarked) [Compound 153] |  |  | < 100 nM | < 100 nM |  |
| Cc1ccc(-c2c(C)noc2C)cc1N(CC1CCN(C2CN(c3cc4c(cc3F)C(=O)N(C3CCC(=O)NC3=O)C4)C2)CC1)c1ccc(C2(C#N)CC2)cc1 (centres unmarked) [Compound 160] | < 100 nM | > 2000 nM |  |  |  |
| Cc1ccc(-c2c(C)noc2C)cc1N(CC1CCC(Nc2cc3c(cc2F)C(=O)N(C2CCC(=O)NC2=O)C3)CC1)c1ccc(C2(C#N)CC2)cc1 (centres unmarked) [Compound 163, 1-(4-((5-(3,5-Dimethylisoxazol-4-yl)-2-methylphenyl)(((1s,4s)-4-((2-(2,6-dioxopiperidin-3)-6-fluoro-1-isoindolinone-5-yl)amino)cyclohexyl)methyl)amino)phenyl)phenylcyclopropanecarbonitrile] |  |  | > 2000 nM | < 100 nM |  |
| Cc1ccc(-c2c(C)noc2C)cc1N(CCCCNc1cc2c(cc1F)C(=O)N(C1CCC(=O)NC1=O)C2=O)c1ccc(C#N)c(Cl)c1 (centres unmarked) [Compound 164, 2-Chloro-4-((5-(3,5-dimethylisoxazol-4-yl)-2-methylphenyl)(4-((2-(2,6-dioxopiperidin-3)-6-fluoro-1,3-dioxyisoindolin-5-yl)amino)butyl)amino)benzonitrile] | > 2000 nM |  |  |  | 501 to 2000 nM |
| Cc1ccc(-c2c(C)noc2C)cc1N(CCCCNc1cc2c(cc1F)CN(C1CCC(=O)NC1=O)C2=O)c1ccc(C#N)c(Cl)c1 (centres unmarked) [Compound 166, 2-Chloro-4-((5-(3,5-dimethylisoxazol-4-yl)-2-methylphenyl)(4-((2-(2,6-dioxopiperidin-3)-6-fluoro-3-isoindolinone-5-yl)amino)butyl)amino)benzonitrile] | < 100 nM |  |  |  | 101 to 500 nM |
| Cc1ccc(-c2c(C)noc2C)cc1N(CCCCNc1cc2c(cc1F)C(=O)N(C1CCC(=O)NC1=O)C2)c1ccc(C#N)c(Cl)c1 (centres unmarked) [Compound 167, 2-Chloro-4-((5-(3,5-dimethylisoxazol-4-yl)-2-methylphenyl)(4-((2-(2,6-dioxopiperidin-3)-6-fluoro-1-isoindolinone-5-yl)amino)butyl)amino)benzonitrile] | > 2000 nM |  |  |  | 501 to 2000 nM |
| Cc1ccc(-c2c(C)noc2C)cc1N(CCCNc1cc2c(cc1F)C(=O)N(C1CCC(=O)NC1=O)C2=O)c1ccc(C2(C#N)CC2)cc1 (centres unmarked) [Compound 171, 1-(4-((5-(3,5-Dimethylisoxazol-4-yl)-2-methylphenyl)(3-((2-(2,6-dioxopiperidin-3-yl)-6-fluoro-1,3-dioxoidindolin-5-yl)amino)propyl)amino)phenyl)cyclopropane-1-nitrile] |  |  | > 2000 nM | > 2000 nM |  |
| Cc1ccc(-c2c(C)noc2C)cc1N(CC(C)OC1CN(c2cc3c(cc2F)C(=O)N(C2CCC(=O)NC2=O)C3=O)C1)c1ccc(C2(C#N)CC2)cc1 (centres unmarked) [Compound 173, 1-(4-((5-(3,5-dimethylisoxazol-4-yl)-2-methylphenyl)(2-((1-(2-(2,6-dioxopiperidin-3-yl)-6-fluoro-1,3-dioxoisoindolin-5-yl)azacyclobutane-3-yl)oxy)propyl)amino)phenyl)cyclopropane-1-nitrile] | 101 to 500 nM | 501 to 2000 nM |  |  |  |
| Cc1ccc(-c2c(C)noc2C)cc1N(CCCNc1cc2c(cc1F)CN(C1CCC(=O)NC1=O)C2=O)c1ccc(C2(C#N)CC2)cc1 (centres unmarked) [Compound 175, 1-(4-((5-(3,5-dimethylisoxazol-4-yl)-2-methylphenyl)(3-((2-(2,6-dioxopiperidin-3-yl)-6-fluoro-3-oxoisoindolin-5-yl)amino)propyl)amino)phenyl)cyclopropane-1-nitrile] | > 2000 nM | 501 to 2000 nM |  |  |  |
| Cc1ccc(-c2c(C)noc2C)cc1N(CCCNc1cc2c(cc1F)C(=O)N(C1CCC(=O)NC1=O)C2)c1ccc(C2(C#N)CC2)cc1 (centres unmarked) [Compound 176, 1-(4-((5-(3,5-dimethylisoxazol-4-yl)-2-methylphenyl)(3-((2-(2,6-dioxopiperidin-3-yl)-6-fluoro-1-oxoisoindolin-5-yl)amino)propyl)amino)phenyl)cyclopropane-1-nitrile] | > 2000 nM | < 100 nM |  |  |  |
| Cc1ccc(-c2c(C)noc2C)cc1N(CC(C)OC1CN(c2cc3c(cc2F)CN(C2CCC(=O)NC2=O)C3=O)C1)c1ccc(C2(C#N)CC2)cc1 (centres unmarked) [Compound 177] |  |  | > 2000 nM | < 100 nM |  |
| Cc1ccc(-c2c(C)noc2C)cc1N(C[C@H]1C[C@@H]1CNc1cc2c(cc1F)C(=O)N(C1CCC(=O)NC1=O)C2=O)c1ccc(C2(C#N)CC2)cc1 (some centres unmarked) [Compound 181] | 101 to 500 nM | > 2000 nM |  |  |  |
| Cc1ccc(-c2c(C)noc2C)cc1N(C[C@H]1C[C@@H]1CNc1cc2c(cc1F)C(=O)N(C1CCC(=O)NC1=O)C2)c1ccc(C2(C#N)CC2)cc1 (some centres unmarked) [Compound 185] | > 2000 nM | > 2000 nM |  |  |  |

More lines, main results first:

| IC50 (22RV1 cells; Homo sapiens) | IC50 (LNCaP/AR cells; [1]) | IC50 (22RV1 cells) | IC50 (LNCaP/AR cells; [2]) | Compound | IC50 (LNCaP/AR cells; LNCaP/AR, 144 h) |
| --- | --- | --- | --- | --- | --- |
| > 2000 nM | 101 to 500 nM |  |  | Cc1ccc(-c2c(C)noc2C)cc1N(CC1(COC2CN(c3cc4c(cc3F)C(=O)N(C3CCC(=O)NC3=O)C4=O)C2)CC1)c1ccc(C2(C#N)CC2)cc1 (centres unmarked) [Compound 138, 1-(4-((5-(3,5-dimethylisoxazol-4-yl)-2-methylphenyl)((1-(((1-(2-(2,6-dioxopiperidin-3-yl)-6-fluoro-1,3-dioxoisoindolin-5-yl)azetidin-3-yl)oxy)methyl)cyclopropyl)methyl)amino)phenyl)cyclopropane-1-nitrile] |  |
| > 2000 nM | > 2000 nM |  |  | Cc1ccc(-c2c(C)noc2C)cc1N(CC1CN(C2CCN(c3cc4c(cc3F)C(=O)N(C3CCC(=O)NC3=O)C4=O)CC2)C1)c1ccc(C2(C#N)CC2)cc1 (centres unmarked) [Compound 139, 1-(4-((5-(3,5-dimethylisoxazol-4-yl)-2-methylphenyl)((1-(1-(2-(2,6-dioxopiperidin-3-yl)-6-fluoro-1,3-dioxoisoindolin-5-yl)piperidin-4-yl)azetidin-3-yl)methyl)amino)phenyl)cyclopropane-1-carbonitrile] |  |
| < 100 nM | 101 to 500 nM |  |  | Cc1ccc(-c2c(C)noc2C)cc1N(CCCCCOCC(=O)N[C@H](C(=O)N1C[C@H](O)C[C@H]1C(=O)N[C@@H](C)c1ccc(-c2scnc2C)cc1)C(C)(C)C)c1ccc(C2(C#N)CC2)cc1 [Compound 143] |  |
| 101 to 500 nM | 501 to 2000 nM |  |  | Cc1ccc(-c2c(C)noc2C)cc1N(CC1CC2(CCN(c3cc4c(cc3F)C(=O)N(C3CCC(=O)NC3=O)C4=O)CC2)C1)c1ccc(C2(C#N)CC2)cc1 (centres unmarked) [Compound 154] |  |
| > 2000 nM | > 2000 nM |  |  | Cc1ccc(-c2c(C)noc2C)cc1N(CC1CN(c2cc3c(cc2F)CN(C2CCC(=O)NC2=O)C3=O)C1)c1ccc(C2(C#N)CC2)cc1 (centres unmarked) [Compound 155] |  |
| 501 to 2000 nM | 101 to 500 nM |  |  | Cc1ccc(-c2c(C)noc2C)cc1N(CC1CN(c2cc3c(cc2F)C(=O)N(C2CCC(=O)NC2=O)C3)C1)c1ccc(C2(C#N)CC2)cc1 (centres unmarked) [Compound 156] |  |
|  |  | < 100 nM | < 100 nM | Cc1ccc(-c2c(C)noc2C)cc1N(CC1CN(C2CN(c3cc4c(cc3F)C(=O)N(C3CCC(=O)NC3=O)C4)C2)C1)c1ccc(C2(C#N)CC2)cc1 (centres unmarked) [Compound 158] |  |
| > 2000 nM | > 2000 nM |  |  | Cc1ccc(-c2c(C)noc2C)cc1N(CC1CCC(Nc2cc3c(cc2F)C(=O)N(C2CCC(=O)NC2=O)C3=O)CC1)c1ccc(C2(C#N)CC2)cc1 (centres unmarked) [Compound 161, 1-(4-((5-(3,5-dimethylisoxazol-4-yl)-2-methylphenyl)(((1s,4s)-4-((2-(2,6-dioxopiperidin-3-yl)-6-fluoro-1,3-dicarbonylisoindolin-5-yl)amino)cyclohexyl)methyl)amino)phenyl) phenylcyclopropanecarbonitrile] |  |
|  |  | > 2000 nM | 101 to 500 nM | Cc1ccc(-c2c(C)noc2C)cc1N(CC1CCC(Nc2cc3c(cc2F)CN(C2CCC(=O)NC2=O)C3=O)CC1)c1ccc(C2(C#N)CC2)cc1 (centres unmarked) [Compound 162, 1-(4-((5-(3,5-Dimethylisoxazol-4-yl)-2-methylphenyl)(((1s,4s)-4-((2-(2,6-dioxopiperidin-3)-6-fluoro-3-isoindolinone-5-yl)amino)cyclohexyl)methyl)amino)phenyl)phenylcyclopropanecarbonitrile] |  |
| > 2000 nM | > 2000 nM |  |  | Cc1ccc(-c2c(C)noc2C)cc1N(c1ccc(C2(C#N)CC2)cc1)C1CC2(C1)CN(c1cc3c(cc1F)C(=O)N(C1CCC(=O)NC1=O)C3=O)C2 (centres unmarked) [Compound 170] |  |
| > 2000 nM | > 2000 nM |  |  | Cc1ccc(-c2c(C)noc2C)cc1N(CC(C)OC1CN(c2ccc3c(c2)C(=O)N(C2CCC(=O)NC2=O)C3)C1)c1ccc(C2(C#N)CC2)cc1 (centres unmarked) [Compound 179, 1-(4-((5-(3,5-Dimethylisoxazol-4-yl)-2-methylphenyl)(2-((1-(2-(2,6-dioxopiperidin-3-yl)-3-oxoisoindolin-5-yl)azacyclobutane-3-yl)oxy)propyl)amino)phenyl)cyclopropane-1-nitrile] |  |
| 101 to 500 nM | > 2000 nM |  |  | Cc1ccc(-c2c(C)noc2C)cc1N(C[C@H]1C[C@@H]1CNc1ccc2c(c1)C(=O)N(C1CCC(=O)NC1=O)C2=O)c1ccc(C2(C#N)CC2)cc1 (some centres unmarked) [Compound 182] |  |
| > 2000 nM | > 2000 nM |  |  | Cc1ccc(-c2c(C)noc2C)cc1N(C[C@H]1C[C@@H]1CNc1cc2c(cc1F)CN(C1CCC(=O)NC1=O)C2=O)c1ccc(C2(C#N)CC2)cc1 (some centres unmarked) [Compound 184] |  |
| > 2000 nM | > 2000 nM |  |  | Cc1ccc(-c2c(C)noc2C)cc1N(C[C@H]1C[C@@H]1CNc1ccc2c(c1)C(=O)N(C1CCC(=O)NC1=O)C2)c1ccc(C2(C#N)CC2)cc1 (some centres unmarked) [Compound 186] |  |
